Tests used:
Assay in all cases: relative viability (nuclei count vs DMSO), 5 days (fraction); higher = more cells survive
Bexarotene = compound: C=C(c1ccc(C(=O)O)cc1)c1cc2c(cc1C)C(C)(C)CCC2(C)C [Bexarotene]
In short: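 Five library-drug doses, separated by factors of √10, were pinned into 1536-well plates holding lung cancer cell lines after an overnight stay at 37 °C. Cells were fixed, permeabilised and Hoechst-stained in one step after 5 days without medium change, then imaged at 4×. Viability compares treated-well with vehicle-well nuclei, counted in MetaXpress, as a median across plates. Passing plates had control CV below 25% and at least one doubling.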

Bexarotene + Trametinib = compound: C=C(c1ccc(C(=O)O)cc1)c1cc2c(cc1C)C(C)(C)CCC2(C)C [Bexarotene] + CC(=O)Nc1cccc(-n2c(=O)n(C3CC3)c(=O)c3c(Nc4ccc(I)cc4F)n(C)c(=O)c(C)c32)c1 [Trametinib] (partner 0.02 µM)
In short: (§1)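 Lung cancer cell lines were seeded in 1536-well plates and dosed by pin tool the next day, with either a single drug or a fixed anchor-drug dose combined with five library-drug doses (not always all listed) spaced in √10 steps. Five days later, one step fixed the cells and stained their nuclei (final 0.05% Triton X-100, 1% formaldehyde, 1 ug/ml Hoechst), and nuclei were counted on 4× images. Relative viability is the nuclei count in treated wells divided by the count in vehicle wells, and each value is the median of duplicate plates.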

Bexarotene + OSI-027 = compound: C=C(c1ccc(C(=O)O)cc1)c1cc2c(cc1C)C(C)(C)CCC2(C)C [Bexarotene] + COc1cccc2cc(-c3nc([C@H]4CC[C@H](C(=O)O)CC4)n4ncnc(N)c34)[nH]c12 [OSI-027] (partner 0.5 µM)
In short: as §1

Bexarotene + Phenformin = compound: C=C(c1ccc(C(=O)O)cc1)c1cc2c(cc1C)C(C)(C)CCC2(C)C [Bexarotene] + N=C(N)NC(=N)NCCc1ccccc1 [Phenformin] (partner 250 µM)
In short: as §1

NCI-H2347
relative viability (Bexarotene; 0.08 µM): 1.18 | relative viability (Bexarotene; 0.253 µM): 1.04 | relative viability (Bexarotene; 0.8 µM): 0.809 | relative viability (Bexarotene; 2.53 µM): 0.981 | relative viability (Bexarotene; 8 µM): 1.07 | relative viability (Bexarotene + Trametinib; first compound 0.08 µM): 0.31 | relative viability (Bexarotene + Trametinib; first compound 0.253 µM): 0.235 | relative viability (Bexarotene + Trametinib; first compound 0.8 µM): 0.25 | relative viability (Bexarotene + Trametinib; first compound 2.53 µM): 0.279 | relative viability (Bexarotene + Trametinib; first compound 8 µM): 0.299 | relative viability (Bexarotene + OSI-027; first compound 0.08 µM): 0.353 | relative viability (Bexarotene + OSI-027; first compound 0.253 µM): 0.275 | relative viability (Bexarotene + OSI-027; first compound 2.53 µM): 0.446 | relative viability (Bexarotene + OSI-027; first compound 8 µM): 0.386 | relative viability (Bexarotene + Phenformin; first compound 0.08 µM): 0.361 | relative viability (Bexarotene + Phenformin; first compound 0.253 µM): 0.434 | relative viability (Bexarotene + Phenformin; first compound 2.53 µM): 0.376 | relative viability (Bexarotene + Phenformin; first compound 8 µM): 0.353

NCI-H2405
relative viability (Bexarotene; 0.08 µM): 1.12 | relative viability (Bexarotene; 0.253 µM): 1.01 | relative viability (Bexarotene; 0.8 µM): 0.857 | relative viability (Bexarotene; 2.53 µM): 0.97 | relative viability (Bexarotene; 8 µM): 0.986 | relative viability (Bexarotene + Trametinib; first compound 0.08 µM): 0.823 | relative viability (Bexarotene + Trametinib; first compound 0.253 µM): 0.819 | relative viability (Bexarotene + Trametinib; first compound 0.8 µM): 0.66 | relative viability (Bexarotene + Trametinib; first compound 2.53 µM): 0.749 | relative viability (Bexarotene + Trametinib; first compound 8 µM): 0.693 | relative viability (Bexarotene + OSI-027; first compound 0.08 µM): 0.675 | relative viability (Bexarotene + OSI-027; first compound 0.253 µM): 0.674 | relative viability (Bexarotene + OSI-027; first compound 0.8 µM): 0.512 | relative viability (Bexarotene + OSI-027; first compound 2.53 µM): 0.708 | relative viability (Bexarotene + OSI-027; first compound 8 µM): 0.65 | relative viability (Bexarotene + Phenformin; first compound 0.08 µM): 0.448 | relative viability (Bexarotene + Phenformin; first compound 0.253 µM): 0.443 | relative viability (Bexarotene + Phenformin; first compound 0.8 µM): 0.296 | relative viability (Bexarotene + Phenformin; first compound 2.53 µM): 0.408 | relative viability (Bexarotene + Phenformin; first compound 8 µM): 0.36

NCI-H3122
relative viability (Bexarotene; 0.08 µM): 1.05 | relative viability (Bexarotene; 0.253 µM): 1.11 | relative viability (Bexarotene; 0.8 µM): 1.03 | relative viability (Bexarotene; 2.53 µM): 1.04 | relative viability (Bexarotene; 8 µM): 1.05 | relative viability (Bexarotene + Trametinib; first compound 0.08 µM): 0.25 | relative viability (Bexarotene + Trametinib; first compound 0.253 µM): 0.229 | relative viability (Bexarotene + Trametinib; first compound 0.8 µM): 0.191 | relative viability (Bexarotene + Trametinib; first compound 2.53 µM): 0.238 | relative viability (Bexarotene + Trametinib; first compound 8 µM): 0.224 | relative viability (Bexarotene + OSI-027; first compound 0.08 µM): 1.09 | relative viability (Bexarotene + OSI-027; first compound 0.253 µM): 1.09 | relative viability (Bexarotene + OSI-027; first compound 0.8 µM): 1.05 | relative viability (Bexarotene + OSI-027; first compound 2.53 µM): 0.989 | relative viability (Bexarotene + OSI-027; first compound 8 µM): 1.07 | relative viability (Bexarotene + Phenformin; first compound 0.08 µM): 0.379 | relative viability (Bexarotene + Phenformin; first compound 0.253 µM): 0.367 | relative viability (Bexarotene + Phenformin; first compound 0.8 µM): 0.359 | relative viability (Bexarotene + Phenformin; first compound 2.53 µM): 0.385 | relative viability (Bexarotene + Phenformin; first compound 8 µM): 0.372

PC-3 [JPC-3]
relative viability (Bexarotene; 0.08 µM): 1.14 | relative viability (Bexarotene; 0.253 µM): 0.98 | relative viability (Bexarotene; 0.8 µM): 0.918 | relative viability (Bexarotene; 2.53 µM): 0.964 | relative viability (Bexarotene; 8 µM): 0.932 | relative viability (Bexarotene + Trametinib; first compound 0.08 µM): 0.708 | relative viability (Bexarotene + Trametinib; first compound 0.253 µM): 0.719 | relative viability (Bexarotene + Trametinib; first compound 0.8 µM): 0.595 | relative viability (Bexarotene + Trametinib; first compound 2.53 µM): 0.654 | relative viability (Bexarotene + Trametinib; first compound 8 µM): 0.678 | relative viability (Bexarotene + OSI-027; first compound 0.08 µM): 0.816 | relative viability (Bexarotene + OSI-027; first compound 0.253 µM): 0.798 | relative viability (Bexarotene + OSI-027; first compound 0.8 µM): 0.604 | relative viability (Bexarotene + OSI-027; first compound 2.53 µM): 0.733 | relative viability (Bexarotene + OSI-027; first compound 8 µM): 0.676 | relative viability (Bexarotene + Phenformin; first compound 0.08 µM): 0.489 | relative viability (Bexarotene + Phenformin; first compound 0.253 µM): 0.514 | relative viability (Bexarotene + Phenformin; first compound 0.8 µM): 0.448 | relative viability (Bexarotene + Phenformin; first compound 2.53 µM): 0.52 | relative viability (Bexarotene + Phenformin; first compound 8 µM): 0.505

PC-14
relative viability (Bexarotene; 0.08 µM): 1.05 | relative viability (Bexarotene; 0.253 µM): 1.17 | relative viability (Bexarotene; 0.8 µM): 0.973 | relative viability (Bexarotene; 2.53 µM): 0.92 | relative viability (Bexarotene; 8 µM): 0.896 | relative viability (Bexarotene + Trametinib; first compound 0.08 µM): 0.708 | relative viability (Bexarotene + Trametinib; first compound 0.253 µM): 0.901 | relative viability (Bexarotene + Trametinib; first compound 0.8 µM): 0.961 | relative viability (Bexarotene + Trametinib; first compound 2.53 µM): 0.818 | relative viability (Bexarotene + Trametinib; first compound 8 µM): 0.821 | relative viability (Bexarotene + OSI-027; first compound 0.08 µM): 0.88 | relative viability (Bexarotene + OSI-027; first compound 0.253 µM): 0.938 | relative viability (Bexarotene + OSI-027; first compound 0.8 µM): 0.743 | relative viability (Bexarotene + OSI-027; first compound 2.53 µM): 0.836 | relative viability (Bexarotene + OSI-027; first compound 8 µM): 0.647 | relative viability (Bexarotene + Phenformin; first compound 0.08 µM): 0.611 | relative viability (Bexarotene + Phenformin; first compound 0.253 µM): 0.61 | relative viability (Bexarotene + Phenformin; first compound 0.8 µM): 0.523 | relative viability (Bexarotene + Phenformin; first compound 2.53 µM): 0.435 | relative viability (Bexarotene + Phenformin; first compound 8 µM): 0.522

— the supplement of paper PMC10307832
